The values that follow come from ChEMBL document CHEMBL1126214, “Muscarinic agonist SAR of azaspirodioxolanes” (Bioorg Med Chem Lett, 1992).

Molecules are shown by their SMILES.

Assay [1] has as its target T1, Muscarinic acetylcholine receptor M1 (Rattus norvegicus) (UniProt P08482).
T1 sequence (whole entry): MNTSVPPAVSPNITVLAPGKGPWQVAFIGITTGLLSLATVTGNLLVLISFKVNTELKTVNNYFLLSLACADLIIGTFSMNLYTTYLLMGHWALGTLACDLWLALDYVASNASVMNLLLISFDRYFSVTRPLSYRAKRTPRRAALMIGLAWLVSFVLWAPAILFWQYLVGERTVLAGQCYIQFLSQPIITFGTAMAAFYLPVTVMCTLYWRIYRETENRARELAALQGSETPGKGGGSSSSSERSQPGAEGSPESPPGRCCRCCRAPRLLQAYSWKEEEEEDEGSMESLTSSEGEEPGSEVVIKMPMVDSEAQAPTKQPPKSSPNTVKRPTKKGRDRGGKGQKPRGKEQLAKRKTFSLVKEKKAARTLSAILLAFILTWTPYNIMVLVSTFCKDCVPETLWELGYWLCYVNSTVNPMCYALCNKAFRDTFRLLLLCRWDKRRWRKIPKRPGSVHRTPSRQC
The conditions noted are these: Ileum.
Description: In vitro for muscarinic M1 receptor agonist potency in the ileum model as a functional measure of peripheral muscarinic activity.

In assay [2] the target is T2, Muscarinic acetylcholine receptor M1 (Rattus norvegicus, UniProt P08482).
T2 sequence (P08482 whole entry): T1 sequence (whole entry)
Description: In vitro 100 nM cortex affinity to displace [3H]- -CD providing a measure of muscarinic m1 receptor agonist affinity.

Assay [3] deals with T2, Muscarinic acetylcholine receptor M1. Description: In vitro 100 nM cortex affinity to displace [3H]- -pirenzepine providing a measure of muscarinic m1 receptor antagonist affinity.
The target in assay [4] is T1, Muscarinic acetylcholine receptor M1 (Rattus norvegicus).
Description: In vitro muscarinic agonist potency in the ganglion model as a functional measure of central muscarinic M1 receptor activity.
Assay [5] addresses T2, Muscarinic acetylcholine receptor M1. Description: Compound was tested in vitro for its efficacy in the ileum model as a functional measure of peripheral muscarinic m1 receptor activity. Particulars: read-out: pA2 (converted). The assay is classed as tissue-based.
The target is the same in assay [6]. Description: (§1) Compound was tested in vitro for its muscarinic m1 receptor agonist potency in the ileum model as a functional measure of peripheral muscarinic m1 receptor activity. The assay is classed as tissue-based. Particulars: read-out: pA2 (converted).
In assay [7] the target is T1, Muscarinic acetylcholine receptor M1 (Rattus norvegicus). Described as §1. Format: tissue-based.
Assay [8] shares this target. Description: Compound was tested in vitro for its muscarinic agonist potency in the ganglion model as a functional measure of central muscarinic m1 receptor activity.

In the case of `CC1SCC2(CCN(C)CC2)S1` (centres undefined), the pD2 was 4.9 in assay [1] and 5 in assay [4]. Further, the Ki (commonly a dissociation constant, usually derived from enzyme kinetics or from competition with a known ligand) in assay [2] was 530 nM; in assay [3] it was 2100 nM.
Turning to `CCC1OCC2(CCN(C)CC2)O1` (centres undefined), the results for the pD2 in assay [1] and in assay [4] were 5 and 5.5, respectively. Also, the Ki in assay [2] worked out at 745 nM; in assay [3], 1320 nM.
Consider `CC[C@H](C)[C@@H]1NC(=O)[C@H](CCCN=C(N)N)NC(=O)[C@@H](CC(=O)O)NC(=O)[C@H]([C@@H](C)CC)NC(=O)[C@@H](CCCN=C(N)N)NC(=O)CNC(=O)CNC(=O)[C@@H](Cc2ccccc2)NC(=O)[C@H](C)NC(=O)[C@@H](NC(=O)[C@H](CO)NC(=O)[C@@H](N)CO)CSSC[C@@H](C(=O)N2C[C@H](C(=O)N[C@H](CCCN=C(N)N)C(=O)O)Cc3ccccc32)NC1=O`, for which the results for the pD2 in assay [1] and in assay [4] were 4.1 and less than 4, respectively.
Regarding `CN1CCC2(CC1)COC(c1ccccc1)(c1ccccc1)O2`, the values for the Ki in assay [2] and in assay [3] were 8.1 nM and 0.6 nM, respectively. The Kb in assay [5] is 6.31 nM; in assay [6], 10 nM.
Regarding `C[C@@H]1OCC2(CN3CCC2CC3)O1` (some centres undefined), the pD2 in assay [1] is 4.8; in assay [4] it was 6. In addition, the Ki in assay [2] was 90 nM; in assay [3], 1570 nM.
Consider `CC1OCC2(CCN(C)CC2)S1` (centres undefined), for which the results for the pD2 in assay [1] and in assay [4] were 5.1 and 5.6, respectively. For the same compound, the values for the Ki in assay [2] and in assay [3] were 720 nM and 3160 nM, respectively.
Take `C[C@@H]1OCC2(CCN(C)C2)O1` (stereo in doubt; cis) [listing 1 of 2 here]: the values for the pD2 in assay [1] and in assay [4] were 5.2 and 5.6, respectively.
Regarding `C[C@H]1OC2(CCN(C)C2)CS1` (some centres undefined), the pD2 in assay [1] was determined as 5.2; in assay [4] it was 5.7. Further, the Ki is 585 nM in assay [2] and 6700 nM in assay [3].
As to `CC1OCC2(CCNCC2)O1` (centres undefined), the pD2 in assay [1] is 5.1; in assay [4] it was 5.9. Also, the Ki in assay [2] was 145 nM; in assay [3] it was greater than 10000 nM.
Consider `COC1OCC2(CCN(C)CC2)O1` (centres undefined), for which the pD2 in assay [1] came out at 4.7; in assay [4], 5.5. Moreover, the values for the Ki in assay [2] and in assay [3] were 870 nM and greater than 10000 nM, respectively.
Taken in the same sequence, the figures for `CCC1C(=O)CC2(CCN(C)CC2)C1=O` (centres undefined) were 6.1, 6.7, 87 nM and 765 nM.
Consider `CN1CCC2(CC1)COC(C)(C)O2`, for which the Ki in assay [2] and in assay [3] was greater than 10000 nM in each case. The pD2 in assay [4] and in assay [7] was less than 4 in each case.
In the case of `CC1OCC2(CCCN(C)C2)O1` (centres undefined), the pD2 in assay [1] and in assay [4] was less than 4 each time.
With `C[C@@H]1OCC2(CN3CCC2C3)O1` (some centres undefined), the pD2 in assay [1] came to 5.5; in assay [4], 5.7. Further, the Ki in assay [2] amounted to 180 nM; in assay [3], 6400 nM.
For `C[C@@H]1O[C@H](C[N+](C)(C)C)C[C@H]1O`, the pD2 was determined as 6.8 in assay [1] and 7.4 in assay [4].
Turning to `C[C@@H]1OCC2(CCN(C)C2)O1` (stereo in doubt; cis) [listing 2 of 2 here], the inhibition constant (Ki) in assay [2] was 550 nM; in assay [3], greater than 10000 nM.
Turning to `CC1OC2(CCN(C)CC2)CS1` (centres undefined), the pD2 in assay [1] was found to be 6; in assay [4], 6.1. Moreover, the Ki in assay [2] turned out to be 185 nM; in assay [3], 2650 nM.
For the compound `CN1CCC2(CC1)COC(C(Cl)(Cl)Cl)O2` (centres undefined), the figures for the Ki in assay [2] and in assay [3] were 960 nM and 200 nM, respectively.
Turning to `C#CC1OCC2(CCN(C)CC2)O1` (centres undefined), the pD2 amounted to 5.2 in assay [1] and 5.9 in assay [4]. Further, the figures for the Ki in assay [2] and in assay [3] were 295 nM and 3000 nM, respectively.
In the case of `C[C@H]1OCC2(CN3CCC2C3)O1` (some centres undefined), the pD2 is 4.1 in assay [1] and 4.4 in assay [4]. The Ki in assay [2] is 1850 nM; in assay [3] it was greater than 10000 nM.
In the case of `CN1CCC2(CC1)COC(c1ccccc1)O2` (centres undefined), the Ki in assay [2] stood at 2800 nM; in assay [3] it was 620 nM. The Kb in assay [6] was 5010 nM.
Consider `C[C@@H]1OCC2(CCN(C)C2)O1` (stereo in doubt; trans) [listing 1 of 2 here], for which the Ki in assay [2] was 1750 nM; in assay [3] it was greater than 10000 nM.
Take `CC1C(=O)CC2(CCN(C)CC2)C1=O` (centres undefined): the pD2 was found to be 5.5 in assay [1] and 6.2 in assay [4]. The Ki in assay [2] stood at 175 nM; in assay [3], 4050 nM.
As for `C[C@@H]1OC2(CS1)CN1CCC2CC1` (some centres undefined), the pD2 is 5.4 in assay [1] and 5.7 in assay [4]. Further, the inhibitory constant (Ki) amounted to 515 nM in assay [2] and 1250 nM in assay [3].
`CN1CCC2(CC1)COCO2`: the pD2 in assay [1] and in assay [8] was 4.6 throughout. Further, the Ki in assay [2] is 1200 nM; in assay [3], greater than 10000 nM.
With `CC1OC[C@@]2(CN3CCC2C3)O1` (some centres undefined), the pD2 in assay [1] was 5.9; in assay [8], 6.5. For the same compound, the Ki was 30 nM in assay [2] and 1950 nM in assay [3].
As for `C[C@H]1OC[C@@H](C[N+](C)(C)C)O1`, the pD2 was 7.5 in assay [1] and 7.8 in assay [4]. Further, the Ki in assay [2] worked out at 6.4 nM; in assay [3], 2100 nM.
Consider `C[C@@H]1OCC2(CCN(C)C2)O1` (stereo in doubt; trans) [listing 2 of 2 here], for which the pD2 in assay [1] is 4.5.
`CC1OCC2(CC[N+](C)(C)CC2)O1` (centres undefined): the values for the pD2 in assay [1] and in assay [4] were 5.2 and 6.1, respectively. In addition, the Ki in assay [2] was determined as 210 nM; in assay [3] it was 5000 nM.
As to `C[C@H]1OC2(CS1)CN1CCC2CC1` (some centres undefined), the pD2 in assay [1] was determined as 4.9; in assay [4], 6.1. Further, the Ki was determined as 105 nM in assay [2] and 430 nM in assay [3].
On to `C[C@@H]1OCC2(CCN(C)C2)S1` (some centres undefined), for which the results for the Ki in assay [2] and in assay [3] were 9150 nM and greater than 10000 nM, respectively.
